Laboratory results taken from patent US20160287712A1, “FATTY ACID NIACIN CONJUGATES” (priority 2013, published 2016).
Like-named read-outs stand apart in the source and are kept apart here.

How the values were obtained:
[1] = Compound hydrolysis and tissue distribution: test compound and metabolites in liver after oral dosing for 3.5 days; assay type: in vivo, Male Sprague-Dawley rats; conditions: for Amount of Analyte: Niacin-linker Metabolite / Amount of Analyte: Nicotinuric Acid / Amount of Analyte: Linker-Fatty Acid Metabolite / concentration at 4 h: male, Sprague-Dawley; for Amount of Analyte: Niacin-linker Metabolite / Amount of Analyte: Nicotinuric Acid / Amount of Analyte: Linker-Fatty Acid Metabolite: 4 h; for concentration at 4 h: liver homogenate, rat liver, 100 mg/kg oral gavage every 12 hours, 7 doses, 4 hours after last dose, read-out: Amount of Analyte: Intact Test Compound
Experimental: The amount of test compound and its metabolites in the liver provides information on distribution of such compounds within the rat, as well as information on stability of the test compound, such as resistance of the test compound to hydrolytic degradation. […] A test compound was administered to a single group of Male Sprague-Dawley rats. Each group contained 6 animals. […] Two additional animals were administered vehicle alone as controls. Animals were dosed every 12 hours for 3.5 days (7 doses total). Rats were fasted overnight after the PM dose on day 3 of study. On day 4 the rats were euthanized 4 hours after the last dose. Vehicle treated rats were also fasted prior to collection of tissue samples on day 4. At 4 hours after last dose, the livers were excised, rinsed and weight of each tissue recorded. Livers were snap frozen in liquid nitrogen and stored in 50 mL polypropylene conical centrifuge tubes at −80° C. Liver tissue was homogenized in PBS at a volume of 2 mL per gram of tissue. The amount of test compound and various metabolites of the test compound present in the liver homogenates were analyzed by LC/MS/MS as done in the previous example. […] In order to quantitate each of these compounds in the homogenates, standard curves in blank liver homogenates were generated using the appropriate internal standard.

[2] = Pharmacokinetics after oral administration to rats with jugular vein and portal vein catheters; assay type: in vivo, Male Sprague-Dawley rats; conditions: rat
Experimental: Pharmacokinetic studies were conducted in male Sprague-Dawley rats, with an approximate weight of 250-300 g at dose initiation. All animals were instrumented with a jugular vein catheter (JVC) and a portal vein catheter (PVC) to facilitate blood collections. Jugular and Portal vein catheterizations were conducted at Charles River Laboratories under protocols approved by the Institutional Animal Care and Use Committee (IACUC) of Charles River Lab (Approved PO 4122010).
Animals were anaesthetized with ketamine and xylazine administered intraperitoneally and provided buprenorphine subcutaneously. The skin overlying the scapula and over the right jugular vein were shaved and skin aseptically prepared. A 1.1.5 cm cranial-caudal incision, followed by blunt dissection was performed to expose the jugular vein, which was then catheterized using either a PU or blended catheter. After fixation of the catheter, it was flushed with sterile saline to verify patency. The distal end of the catheter was then tunneled subcutaneously to the dorsal scapular region where it was exteriorized. Catheter patency was verified again. The catheter was then locked with 50% heparinized dextrose solution. The exteriorized end of the catheter was sealed with a stainless steel plug. The skin incision was then closed with wound clips.
Animals were anaesthetized with ketamine and xylazine administered intraperitoneally. A mid-line incision 1-2 cm was made in the abdominal cavity and the portal vein was detached near the liver. To prevent bleeding, the portal vein was ligated temporarily as the catheter was inserted. The cathether (3.5 Fr polyurethane tube, Access™ technologies Inc.) was inserted immediately and fixed by a purse-string suture on the portal vein. The time to reperfusion was about 1 min after intercepted blood flow. This method for insertion of catheter can avoid the occlusion of the vessel. In addition, a catheter with trumpet-shaped opening was used to prevent the catheter from slipping out of the vessel with minimizing the effect of blood flow. Another end of the catheter was passed subcutaneously to the dorsal back of the neck and the laparotomy was closed in two layers, with a 4/0 silk blade to the muscle, and a surgical clip to close the skin.
Male Sprague-Dawley rats instrumented with jugular vein catheter and portal vein catheter were separated into groups of 4. The test compound was administered by oral gavage at dose of 30 mg/kg in a vehicle consisting of Tween (specifically Tween 80), Peceol, PEG400 (at a ratio of 40:50:10) along with 0.2% tocopherol and emulsified in water, with a water to oil ratio of 66:1 (the dose concentration was 6 mg/mL and the dose volume was 5 mL/kg). Whole blood (0.3 mL) was collected at both the jugular and portal vein at the following time points: 10, 20, 40 min, 1, 1.5, 2 and 4 hours post-dose. Blood samples were placed into tubes containing sodium heparin anticoagulant. Each whole blood sample was placed on ice until sample could be centrifuged at 2200×g at 5° C.±3° C. for 10 min to isolate plasma.
The amount of the various metabolites and parent compound present in the plasma samples were then analyzed by LC/MS/MS using an Agilent 6410 Triple Quadrupole with an ESI interface. The column used was a Phenomenex Gemini C6 Phenyl 110A 50×4.6 mm, 1.8 μM. The mobile phase used was water and methanol, each containing 0.1% formic acid. Data was further analyzed by WinNolin Software. For a given test compound, the following compounds were quantitated from the collected plasma samples: 1) test compound, 2) niacin linker, 3) linker-EPA, 4) niacin and 5) nicotinuric acid.
In order to quantitate each of these compounds in plasma, standard curves in blank plasma were generated using the appropriate internal standard (the final concentration range used were 8333 ng/mL, 2083 ng/mL, 521 ng/mL, 130.2 ng/mL, 32.5 ng/mL, 8.1 ng/mL, 2.0 ng/mL and 0.5 ng/mL). […]

[3] = male, Sprague-Dawley, in vivo, po, 30 mg/kg
[4] = male, Sprague-Dawley, in vivo, po, 30 mg/kg, Peripheral AUClast, parent compound
[5] = male, Sprague-Dawley, in vivo, po, 30 mg/kg, Peripheral Cmax, parent compound
[6] = male, Sprague-Dawley, in vivo, po, 30 mg/kg, Portal AUClast, parent compound
[7] = male, Sprague-Dawley, in vivo, po, 30 mg/kg, Portal Cmax, parent compound

| SMILES | Amount of Analyte: Niacin-linker Metabolite ([1]; rat, in vivo, po, 100 mg/kg) | ratio of Portal AUClast of Parent compound to Portal AUClast of Niacin-linker metabolite [2, 3] | AUC(0-t) [2, 4] [ng·h/mL] | Cmax [2, 5] [ng/mL] | AUC(0-t) [2, 6] [ng·h/mL] | Cmax [2, 7] [ng/mL] | also measured |
| --- | --- | --- | --- | --- | --- | --- | --- |
| CC/C=C\C/C=C\C/C=C\C/C=C\C/C=C\CCCC(=O)NCCNC(=O)c1cccnc1 [Compound I-8, N-(2-(5Z,8Z,11Z,14Z,17Z)-eicosa-5,8,11,14,17-pentaenamidoethyl)nicotinamide, reference compound] | 2351 nanograms of analyte per gram of tissue homogenate | 0.06 | 81 | 78 | 662 | 756 | Amount of Analyte: Nicotinuric Acid ([1]; rat, in vivo, po, 100 mg/kg): 785 nanograms of analyte per gram of tissue homogenate |
| CC/C=C\C/C=C\C/C=C\C/C=C\C/C=C\CCCC(=O)N[C@H]1CCN(C(=O)c2cccnc2)C1 [Compound I-23, (5Z,8Z,11Z,14Z,17Z)—N—((S)-1-nicotinoylpyrrolidin-3-yl)icosa-5,8,11,14,17-pentaenamide] | 2290 nanograms of analyte per gram of tissue homogenate | 0.17 | 60 | 68 | 1440 | 2600 |  |
| CC/C=C\C/C=C\C/C=C\C/C=C\C/C=C\CCCC(=O)N[C@H]1CC[C@H](CNC(=O)c2cccnc2)CC1 [Compound I-41, N-(((1R,4R)-4-((5Z,8Z,11Z,14Z,17Z)-icosa-5,8,11,14,17-pentaenamido)cyclohexyl)methyl)nicotinamide] |  |  |  |  |  |  | Peripheral AUClast, parent compound ([2]; in vivo, po, 30 mg/kg): 218 ng·h/mL; Portal AUClast, parent compound ([2]; in vivo, po, 30 mg/kg): 2,507 hr*ng/mL; ratio of Portal AUClast of Parent compound to Portal AUClast of Niacin-linker metabolite ([2]; in vivo, po, 30 mg/kg): 1.3 |
| CC/C=C\C/C=C\C/C=C\C/C=C\C/C=C\CCCC(=O)N1CC[C@H](NC(=O)c2cccnc2)C1 [Compound I-24, N—((S)-1-((5Z,8Z,11Z,14Z,17Z)-icosa-5,8,11,14,17-pentaenoyl)pyrrolidin-3-yl)nicotinamide] | 2826 nanograms of analyte per gram of tissue homogenate | 41 | 964 | 565 | 6640 | 5320 | Amount of Analyte: Linker-Fatty Acid Metabolite ([1]; rat, in vivo, po, 100 mg/kg): 77.2 nanograms of analyte per gram of tissue homogenate; amount of intact test compound present in the liver compared to other compounds of Table 9 ([1]; rat, in vivo, po, 100 mg/kg): significantly larger |
| CC/C=C\C/C=C\C/C=C\C/C=C\C/C=C\CCCC(=O)N(C)CCNC(=O)c1cccnc1 [Compound I-15, N-(2-((5Z,8Z,11Z,14Z,17Z)—N-methylicosa-5,8,11,14,17-pentaenamido)ethyl)nicotinamide] |  |  | 767 | 360 | 5060 | 4520 | concentration at 4 h [1]: 459 ng/g |
| CC/C=C\C/C=C\C/C=C\C/C=C\C/C=C\C/C=C\CCC(=O)NCCNC(=O)c1cccnc1 [Compound I-7, N-(2-(4Z,7Z,10Z,13Z,16Z,19Z)-docosa-4,7,10,13,16,19-hexaenamidoethyl)nicotinamide, reference compound] |  |  |  |  |  |  | concentration at 4 h [1]: 6.7 ng/g; Cmax ([2]; male, Sprague-Dawley, jugular vein plasma, po, 30 mg/kg, 30 mg/kg oral gavage, jugular vein plasma, read-out: Peripheral Cmax, parent compound): 238 ng/mL; AUC(0-t) ([2]; male, Sprague-Dawley, jugular vein plasma, po, 30 mg/kg, 30 mg/kg oral gavage, jugular vein plasma, t=10 min to 4 hrs, read-out: Peripheral AUClast, parent compound): 353 ng·h/mL; Cmax ([2]; male, Sprague-Dawley, portal vein plasma, po, 30 mg/kg, 30 mg/kg oral gavage, portal vein plasma, read-out: Portal Cmax, parent compound): 1850 ng/mL; AUC(0-t) ([2]; male, Sprague-Dawley, portal vein plasma, po, 30 mg/kg, 30 mg/kg oral gavage, portal vein plasma, t=10 min to 4 hrs, read-out: Portal AUClast, parent compound): 1460 ng·h/mL; portal concentration of the parent compound compared to compounds I-15 and I-24 ([2]; 30 mg/kg oral gavage): lower |
| CC/C=C\C/C=C\C/C=C\C/C=C\C/C=C\CCCC(=O)N1CCN(C(=O)c2cccnc2)CC1 [Compound I-13, (5Z,8Z,11Z,14Z,17Z)-1-(4-nicotinoylpiperazin-1-yl)icosa-5,8,11,14,17-pentaen-1-one] | 2023 nanograms of analyte per gram of tissue homogenate | 0.83 | 142 | 80 | 3560 | 6070 | Amount of Analyte: Linker-Fatty Acid Metabolite ([1]; rat, in vivo, po, 100 mg/kg): 15782 nanograms of analyte per gram of tissue homogenate; Amount of Analyte: Nicotinuric Acid ([1]; rat, in vivo, po, 100 mg/kg): 15.1 nanograms of analyte per gram of tissue homogenate |
